According to US6623933B1 (priority 1999, dated 2003):
Several values for one entry are separate records, joined by “and”; a condition that tells them apart may be missing. Equal values may be shown once. Where a name gives a salt, the structure may show the parent alone. Read-outs that look alike come from different tables or passages of the source.

Experiments:
NR1000/NR2A = NR1000/NR2A (Rattus norvegicus, UniProt P35439+Q00959); set-up: agonist Emax: dose or concentration left out as unconfirmed
NR1111/NR2A = NR1111/NR2A (Rattus norvegicus, UniProt P35439+Q00959); test: NMDA-induced currents of NR1 splice variants, Xenopus oocytes, Example 4; format: cell-based; set-up: expressed in transfected cells; host or cells: Xenopus oocytes injected with NR1111 and NR2A mRNA; settings: for NMDA nH / EC50 / maximum relative current (MRC) / percentage potentiation of the maximum NMDA response: NR1111/2A; for EC50: read-out: NMDA EC50
Method: (§1) Overnight cultures (500 ml) of transformed bacterial cells were prepared in order to grow sufficient quantities for maxiprep isolation of the plasmid CDNA. Maxipreps were done using a Sorvall RC-5B ultracentrifuge, Qiagen columns and cDNA was quantitated with spectrophotometry (OD260 and OD260/ OD280 ratio). The resulting plasmid cDNA was linearized by digestion with an appropriate restriction enzyme that cleaves distal to the cDNA insert (XhoI for NR2A or NotI for NR1100, NR1000, NR1111, NR1011, NR1101, NR1001). […] The samples were stored at −20° C. until use.
(§2) In vitro transcription was performed using the Ambion mMessage mMachine kit with T7 (NR1100, NR1000, NR1111, NR1011, NR1101, NR1001) RNA polymerase. The reaction was assembled on ice and allowed to incubate at 37° C. for 1-2 hr. The resulting mRNA was precipitated (reaction termination) using lithium chloride/5 mM EDTA solution and dissolved in RNase-free H2O. The concentration (OD260) and OD260/OD280 ratio (should be more than 1.5) was determined by spectrophotometer. The yield of mRNA was generally 15-30 μg. mRNA was stored at −80° C. until use.
(§3) Intracellular recording microelectrodes were fabricated from 100 μl borosilicate glass disposable micropipettes using a 2-step protocol on a standard horizontal Flaming-Brown micropipette puller.

NR1/NR2B (NR1100) = NR1/NR2B (NR1100) (Rattus norvegicus, UniProt P35439+Q00960)
From the text: (§4) Plasmids containing the NR1100 (NR1G) and NR2A cDNA inserts were kindly provided by Dr. Nakanishi (Kyoto University Faculty of Medicine, Kyoto, Japan). Plasmids containing the NR2B, NR2C and NR2D cDNA inserts were kindly provided by Dr. P. Seeburg (Heidelberg University, Heidelberg, Germany). Plasmids were linearized with appropriate restriction enzyme prior to in vitro transcription using the Message Machine kit (Ambion, Inc., Austin, Tex.).
(§5) Female, oocyte-positive Xenopus laevis frogs were purchased from Xenopus I (Dexter, Mich.). […] Oocytes were injected with 50 nL of RNA solutions using an electronic microinjector (Drummond Inc., Broomall, Pa.). […] The injected oocytes were used for experiments following 1-5 days of incubation in Barth's solution at 18-20° C.
(§6) The microelectrodes were fabricated from borosilicate glass capillaries with a programmed puller (Sutter Instrument Co., Calif.). Microelectrode resistance was 1-3 MΩ_when filled with 3 M KCl.
(§7) Except where otherwise stated, oocytes were clamped at a holding potential of −70 mV during data acquisition. The membrane current was filtered at 500 Hz and sampled at 100 Hz. Drugs were applied using a gravity-driven external perfusion system. The working volume of the recording chamber was 30 μl and the rate of the perfusion was 50 μl/sec. The drug application lasted 10 sec and was followed by 60 s wash. Data acquisition and external perfusion were controlled using custom-written software implemented in the SuperScope II development environment (GW Instruments, Mass.). All experiments were performed at room temperature of 22-24° C. Peak or steady-state current measurements were normalized and expressed as a fraction of the peak or steady-state control current measurements, which were performed before and after application of every single concentration of agonists or steroids.
(§8) Concentration-response data were analyzed by nonlinear regress ion using the logistic equation Response=Emax/(1+(EC50/c)^nH), where c is concentration, Emaxis the maximum response, nHis the Hill coefficient. The data are presented as mean±SEM. EC50values are averaged as logarithms (De Lean et al., Am. J. Physiol. 235: E97-E102 (1978))±the SEM of the log EC50. […] The pooled data were simultaneously fitted to the logistic equation, either with Emax and EC50 constrained to be identical in the presence and absence of PS, or allowing one or both to vary independently. […] This was regarded as indicating a significant treatment effect of PS, but the change in EC50and Emaxwas not considered significant. […] No attempt was made to test the generally small changes in nHfor statistical significance.

NR1011/NR2A = NR1011/NR2A (Rattus norvegicus, UniProt P35439+Q00959); test: NMDA-induced currents of NR1 splice variants, Xenopus oocytes, Example 4; format: cell-based; set-up: expressed in transfected cells; host or cells: Xenopus oocytes injected with NR1011 and NR2A mRNA; settings: for NMDA nH / EC50 / maximum relative current (MRC) / percentage potentiation of the maximum NMDA response: NR1011/2A; for EC50: read-out: NMDA EC50
Method: as §1, §2, §3

NR1100 NMDA receptor = biological target: T1, NR1100 NMDA receptor (Rattus norvegicus, UniProt P35439); test: NMDA-induced currents, Xenopus oocytes injected with NR1100 cRNA only, Example 1; format: cell-based
T1 construct: expressed in transfected cells; host or cells: Xenopus oocytes injected with NR1100 cRNA only
From the text: Plasmids were obtained from the following individuals: Dr. Suzanne Zukin (Albert Einstein College of Medicine, Bronx, N.Y.), NR1100; Dr. Shigetada Nakanishi (Kyoto University Faculty of Medicine, Kyoto, Japan), NR2A; Dr. Stephen Heinemann (Salk Institute, San Diego, Calif.), GluR1 (flop), GluR3 (flop), and GluR6. Plasmids were linearized with BamH1 (NR1100), XhoI (NR2A, GluR1, GluR3) or XbaI (GluR6) prior to in vitro transcription with T3 (GluR1, GluR3, GluR6) or T7 (NR1100, NR2A) RNA polymerase using the Message Machine kit (Ambion, Austin, Tex.). […] RNA solutions (50-70 nl) were injected into oocytes for delivery of NR1100 (5 ng), NR1100:NR2A (1:10 ng), GluR1 (5 ng). GluR3 (5 ng), or GluR6 (20 ng). Oocytes were incubated in ND96 at 18-20° C. for 3-7 days prior to electrophysiological recording.
Steroid solutions were prepared as 70-100 mM frozen stocks in dimethyl sulfoxide (DMSO). The final DMSO concentration of all recording solutions was between 0.1% to 0.5% and was constant within an experiment.
Perfusion control and data acquisition were carried out using an automated oocyte electrophysiology workstation that was developed for the rapid collection of concentration-response data and real-time waveform analysis (Yaghoubi et al., Soc. Neurosci. Abstr. 20: 1109 (1995)). This system is implemented on a Macintosh IIci computer (Apple Computer, Cupertino, Calif.) equipped with MacA-DIOS II data acquisition and control hardware (GW Instruments, Somerville, Mass.). Drug application is controlled by the computer through a series of valves, using custom-written software based on the SuperScope II development environment, improving the efficiency and reproducibility of data collection. Experiments were carried out using an Axoclamp-2A voltage clamp amplifier (Axon Instruments, Foster City, Calif.) in two-electrode voltage clamp mode. Intracellular microelectrodes (1-3 MΩ) were filled with 3 M KCl. […] Membrane potential was clamped at −60 to −70 mV and stepped to −100 mV at the start of data acquisition unless otherwise stated. […] Current and voltage recordings were digitized at 100 Hz for analysis. GluR6 injected oocytes were treated for 10 min with 10 μg/ml concanavalin A to prevent fast desensitization.
Results are expressed as mean±S.E.M. Statistical comparisons were made using Student's t-test.

NR1/NR2A (NR1100) = NR1/NR2A (NR1100) (Rattus norvegicus, UniProt P35439+Q00959)
From the text: as §4, §5, §6, §7, §8

NR1001/NR2A = NR1001/NR2A (Rattus norvegicus, UniProt P35439+Q00959); set-up: agonist Emax: dose or concentration left out as unconfirmed
[1] = pH 7.5, read-out: percentage inhibition of the maximum NMDA response
[2] = read-out: agonist EC50, +100 μM PS
[3] = 100 μM PS, 200 μM NMDA+10 μM glycine, pH 7.5

Sequence of NR1/NR2B (NR1100) (Q00960 27-1482, other chains not shown): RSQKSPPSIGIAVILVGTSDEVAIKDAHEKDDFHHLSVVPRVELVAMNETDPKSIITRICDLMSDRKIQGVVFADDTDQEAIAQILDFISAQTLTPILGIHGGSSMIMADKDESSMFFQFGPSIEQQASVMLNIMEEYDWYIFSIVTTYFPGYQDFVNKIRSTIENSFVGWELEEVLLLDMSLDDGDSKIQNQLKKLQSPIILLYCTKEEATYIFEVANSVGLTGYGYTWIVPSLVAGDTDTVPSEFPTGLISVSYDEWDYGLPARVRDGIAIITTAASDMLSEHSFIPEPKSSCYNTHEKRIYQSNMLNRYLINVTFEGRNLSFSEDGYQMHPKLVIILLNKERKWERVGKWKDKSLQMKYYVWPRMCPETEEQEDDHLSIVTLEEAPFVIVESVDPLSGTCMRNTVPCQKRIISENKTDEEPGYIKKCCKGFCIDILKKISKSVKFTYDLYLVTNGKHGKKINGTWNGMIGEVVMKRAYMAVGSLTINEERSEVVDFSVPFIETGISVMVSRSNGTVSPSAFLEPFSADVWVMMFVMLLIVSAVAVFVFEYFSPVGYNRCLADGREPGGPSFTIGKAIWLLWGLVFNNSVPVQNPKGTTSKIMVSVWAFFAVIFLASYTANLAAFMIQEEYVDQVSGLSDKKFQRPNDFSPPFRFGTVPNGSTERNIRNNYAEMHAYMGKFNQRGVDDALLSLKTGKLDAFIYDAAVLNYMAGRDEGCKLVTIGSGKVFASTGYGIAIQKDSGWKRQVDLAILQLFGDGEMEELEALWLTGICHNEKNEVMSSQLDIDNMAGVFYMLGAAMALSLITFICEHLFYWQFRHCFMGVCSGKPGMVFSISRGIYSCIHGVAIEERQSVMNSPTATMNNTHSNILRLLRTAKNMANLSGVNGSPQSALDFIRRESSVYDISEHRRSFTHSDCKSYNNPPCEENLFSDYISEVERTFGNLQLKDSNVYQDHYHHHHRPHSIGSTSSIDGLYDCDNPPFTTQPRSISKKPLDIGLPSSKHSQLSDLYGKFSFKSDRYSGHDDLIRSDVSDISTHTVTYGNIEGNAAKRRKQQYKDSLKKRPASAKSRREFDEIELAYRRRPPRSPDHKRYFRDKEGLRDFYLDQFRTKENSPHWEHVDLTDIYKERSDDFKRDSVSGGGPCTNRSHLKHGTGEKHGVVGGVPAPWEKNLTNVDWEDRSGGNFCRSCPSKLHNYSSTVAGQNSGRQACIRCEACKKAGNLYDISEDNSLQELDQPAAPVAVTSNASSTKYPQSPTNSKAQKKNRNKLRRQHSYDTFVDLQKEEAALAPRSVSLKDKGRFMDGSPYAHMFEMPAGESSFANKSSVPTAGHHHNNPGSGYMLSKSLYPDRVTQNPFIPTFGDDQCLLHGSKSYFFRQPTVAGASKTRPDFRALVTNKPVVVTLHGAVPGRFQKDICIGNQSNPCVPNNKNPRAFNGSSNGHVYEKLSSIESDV
Sequence of NR1111/NR2A (Q00959 23-1464, other chains not shown): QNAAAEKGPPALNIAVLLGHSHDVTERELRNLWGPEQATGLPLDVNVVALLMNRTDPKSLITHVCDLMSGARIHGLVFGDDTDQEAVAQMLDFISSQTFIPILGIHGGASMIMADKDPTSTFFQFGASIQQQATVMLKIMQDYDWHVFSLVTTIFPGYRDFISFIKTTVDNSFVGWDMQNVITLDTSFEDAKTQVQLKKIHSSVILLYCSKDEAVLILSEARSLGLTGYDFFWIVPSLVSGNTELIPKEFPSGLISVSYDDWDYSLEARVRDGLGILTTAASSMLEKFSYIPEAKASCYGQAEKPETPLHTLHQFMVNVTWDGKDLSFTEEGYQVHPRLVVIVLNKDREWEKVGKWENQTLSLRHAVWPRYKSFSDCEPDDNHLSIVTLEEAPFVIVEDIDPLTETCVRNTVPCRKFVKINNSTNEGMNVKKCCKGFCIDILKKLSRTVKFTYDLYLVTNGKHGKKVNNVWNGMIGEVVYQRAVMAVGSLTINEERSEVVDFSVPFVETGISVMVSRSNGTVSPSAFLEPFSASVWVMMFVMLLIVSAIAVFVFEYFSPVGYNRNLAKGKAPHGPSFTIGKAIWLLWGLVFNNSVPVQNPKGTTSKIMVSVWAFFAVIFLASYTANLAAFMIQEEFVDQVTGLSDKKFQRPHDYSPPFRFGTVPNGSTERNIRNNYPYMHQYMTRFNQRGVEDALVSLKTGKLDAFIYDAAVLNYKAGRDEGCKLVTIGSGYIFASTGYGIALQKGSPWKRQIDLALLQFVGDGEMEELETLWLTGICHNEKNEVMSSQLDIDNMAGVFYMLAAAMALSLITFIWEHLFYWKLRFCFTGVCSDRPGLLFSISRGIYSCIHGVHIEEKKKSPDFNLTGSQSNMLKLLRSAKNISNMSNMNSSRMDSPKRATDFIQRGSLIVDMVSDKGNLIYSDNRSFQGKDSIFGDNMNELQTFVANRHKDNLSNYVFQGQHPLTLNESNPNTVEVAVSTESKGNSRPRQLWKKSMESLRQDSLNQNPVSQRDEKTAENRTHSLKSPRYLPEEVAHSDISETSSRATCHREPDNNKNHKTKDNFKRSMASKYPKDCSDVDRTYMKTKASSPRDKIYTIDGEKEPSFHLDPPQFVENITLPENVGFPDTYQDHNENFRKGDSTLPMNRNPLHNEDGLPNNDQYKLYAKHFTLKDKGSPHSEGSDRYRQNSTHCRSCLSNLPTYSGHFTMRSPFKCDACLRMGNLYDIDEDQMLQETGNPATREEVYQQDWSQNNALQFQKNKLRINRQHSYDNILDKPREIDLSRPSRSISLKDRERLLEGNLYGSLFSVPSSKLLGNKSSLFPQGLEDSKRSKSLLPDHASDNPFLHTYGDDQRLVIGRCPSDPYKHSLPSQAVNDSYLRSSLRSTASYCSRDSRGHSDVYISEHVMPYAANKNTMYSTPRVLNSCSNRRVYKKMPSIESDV
Sequence of NR1011/NR2A (Q00959 23-1464, other chains not shown): as above

With `CC(=O)[C@H]1CC[C@H]2[C@@H]3CC[C@@H]4C[C@H](OS(=O)(=O)O)CC[C@]4(C)[C@H]3CC[C@]12C` [3α5βS, 3α5β-pregnanolone sulfate] the “3α5βS Emax” value (NR1000/NR2A; splice variant 000 /NR2A) was −0.89 ± 0.01, the “3α5βS nHill” value (NR1000/NR2A; splice variant 000 /NR2A) was 0.98 ± .03 and the inhibition at 100 µM (NR1111/NR2A; [1]) was 59%. The “3α5βS nH” value (NR1/NR2B (NR1100)) was 1.06 ± 0.04, the inhibition at 100 µM (NR1011/NR2A; [1]) was 56% and the EC50 (NR1100 NMDA receptor) was 57 µM. The “3α5βS nH” value (NR1/NR2A (NR1100)) was 1.39 ± 0.07, the “3α5βS Emax” value (NR1001/NR2A; splice variant 001 /NR2A) was −0.89 ± 0.05 and the “3α5βS nHill” value (NR1001/NR2A; splice variant 001 /NR2A) was 0.95 ± 0.11.

For `CN[C@H](CC(=O)O)C(=O)O` [NMDA, N-methyl-D-aspartate], the “agonist Emax” value (NR1000/NR2A; NR1000/NR2A, absence of PS) was 1.20 ± 0.05, the “agonist nHill” value (NR1000/NR2A; NR1000/NR2A, absence of PS) was 1.31 ± 0.08 and the “agonist nHill” value (NR1000/NR2A; NR1000/NR2A, presence of 100 mM PS) was 1.18 ± 0.05. The “agonist Emax” value (NR1000/NR2A; NR1000/NR2A, presence of PS) was “(1.55 ± 0.04)”, the “NMDA nH” value (NR1111/NR2A; pH 7.5, +100 μM 3α5βS) was 1.50 and the “NMDA nH” value (NR1111/NR2A; pH 7.5, +100 μM PS) was 2.02. For the same compound, the “NMDA nH” value (NR1111/NR2A; pH 7.5, control) was 1.67, the “NMDA nH” value (NR1111/NR2A; pH 8.5, +100 μM PS) was 1.82 and the “NMDA nH” value (NR1111/NR2A; pH 8.5, control) was 1.93. It also gave an EC50 (NR1111/NR2A; pH 7.5, +100 μM 3α5βS) of 158 µM, an EC50 (NR1111/NR2A; pH 7.5, +100 μM PS) of 89 µM and an EC50 (NR1111/NR2A; pH 7.5, control, 10 μM glycine) of 103 µM. For the same compound, the EC50 (NR1111/NR2A; pH 8.5, +100 μM PS) was 94 µM, the EC50 (NR1111/NR2A; pH 8.5, control) was 110 µM and the “agonist Emax” value (NR1/NR2B (NR1100); +100 μM PS) was 1.47. The “agonist nH” value (NR1/NR2B (NR1100); +100 μM PS) was 1.32 ± 0.11, the “agonist Emax” value (NR1/NR2B (NR1100); no PS) was 1.00 ± 0.02 and the “agonist nH” value (NR1/NR2B (NR1100); no PS) was 1.28 ± 0.08. For the same compound, the EC50 (NR1/NR2B (NR1100); [2]) was 12 µM, the “NMDA nH” value (NR1011/NR2A; pH 7.5, +100 μM 3α5βS) was 1.35 and the “NMDA nH” value (NR1011/NR2A; pH 7.5, +100 μM PS) was 1.24. The “NMDA nH” value (NR1011/NR2A; pH 7.5, control) was 1.47, the “NMDA nH” value (NR1011/NR2A; pH 8.5, +100 μM PS) was 1.44 and the “NMDA nH” value (NR1011/NR2A; pH 8.5, control) was 1.62. It also gave an EC50 (NR1011/NR2A; pH 7.5, +100 μM 3α5βS) of 120 µM, an EC50 (NR1011/NR2A; pH 7.5, +100 μM PS) of 67 µM and an EC50 (NR1011/NR2A; pH 7.5, control, 10 μM glycine) of 71 µM. For the same compound, the EC50 (NR1011/NR2A; pH 8.5, +100 μM PS) was 58 µM, the EC50 (NR1011/NR2A; pH 8.5, control) was 94 µM and the “agonist Emax” value (NR1/NR2A (NR1100); +100 μM PS) was 1.60. For the same compound, the “agonist nH” value (NR1/NR2A (NR1100); +100 μM PS) was 1.20 ± 0.06, the “agonist nH” value (NR1/NR2A (NR1100); no PS) was 1.13 ± 0.04 and the “agonist Emax” value (NR1/NR2A (NR1100); no PS, normalized to 200 μM NMDA plus 10 μM glycine) was 1.36 ± 0.04. The EC50 (NR1/NR2A (NR1100); [2]) was 39 µM, the EC50 (NR1/NR2A (NR1100); read-out: agonist EC50, no PS) was 73 µM and the “agonist Emax” value (NR1001/NR2A; NR1001/NR2A, absence of PS) was 1.27 ± 0.04. The “agonist nHill” value (NR1001/NR2A; NR1001/NR2A, absence of PS) was 1.46 ± 0.07, the “agonist nHill” value (NR1001/NR2A; NR1001/NR2A, presence of 100 mM PS) was 1.21 ± 0.15 and the “agonist Emax” value (NR1001/NR2A; NR1001/NR2A, presence of PS) was “(2.15 ± 0.17)”.

With pregnenolone sulfate [PS] the “Maximum potentiation of NMDA-induced current by PS” value (NR1000/NR2A; NR1000/NR2A) was 2.14±0.08 fold, the “PS Emax” value (NR1000/NR2A; NR1000/NR2A) was 1.14 ± 0.08 and the “PS nHill” value (NR1000/NR2A; NR1000/NR2A) was 1.31 ± 0.06. For the same compound, the “maximum relative current (MRC)” value (NR1111/NR2A; [3]) was 2.28, the “maximum relative current (MRC)” value (NR1111/NR2A; 100 μM PS, pH 6.5) was 4.06 and the “percentage potentiation of the maximum NMDA response” value (shortened to “percentage potentiation”) (NR1111/NR2A; 100 μM PS, pH 7.5) was 103%. For the same compound, the “maximum relative current (MRC)” value (NR1111/NR2A; 100 μM PS, pH 8.5) was 1.59 and 1.58, the “percentage potentiation” value (NR1111/NR2A; 100 μM PS, pH 8.5) was 47% and the “difference in mrc between pH=6.5 and pH=7.5” value (NR1111/NR2A; NR1111/NR2A, 100 μM PS) was 1.8 fold. The “difference in mrc between pH=7.5 and pH=8.5” value (NR1111/NR2A; NR1111/NR2A, 100 μM PS) was 1.4 fold, the “PS nH” value (NR1/NR2B (NR1100)) was 1.42 ± 0.11 and the “enhancement of NMDA-induced current” value (NR1/NR2B (NR1100); 100 μM PS, […] μM NMDA) was 78±9%. For the same compound, the “PS Emax (% Change)” value (NR1/NR2B (NR1100); […] μM NMDA, 10 μM glycine) was “+202 ± 10%”, the “maximum relative current (MRC)” value (NR1011/NR2A; [3]) was 1.41 and the “maximum relative current (MRC)” value (NR1011/NR2A; 100 μM PS, pH 6.5) was 2.24. The “percentage potentiation” value (NR1011/NR2A; 100 μM PS, pH 7.5) was 50%, the “maximum relative current (MRC)” value (NR1011/NR2A; 100 μM PS, pH 8.5) was 1.35 and the “percentage potentiation” value (NR1011/NR2A; 100 μM PS, pH 8.5) was 24%. The “difference in mrc between pH=6.5 and pH=7.5” value (NR1011/NR2A; NR1011/NR2A, 100 μM PS) was 1.7 fold, the “maximum potentiation of NMDA induced current” value (NR1100 NMDA receptor; NR1100 cRNA only) was 114% and the “steroid Emax (NMDA-induced current relative to control)” value (NR1100 NMDA receptor; NR1100 cRNA only, 300 μM NMDA) was 2.14. The “PS nH” value (NR1/NR2A (NR1100)) was 1.33 ± 0.08, the “PS Emax (% Change)” value (NR1/NR2A (NR1100); 80 μM NMDA, 10 μM glycine) was “+167 ± 7%” and the “enhancement of NMDA plus glycine current” value (NR1/NR2A (NR1100); 100 μM PS, 80 μM NMDA) was 62±8%. For the same compound, the “Maximum potentiation of NMDA-induced current by PS” value (NR1001/NR2A; NR1001/NR2A) was 2.19±0.09 fold, the “PS Emax” value (NR1001/NR2A; NR1001/NR2A) was 1.19 ± 0.09 and the “PS nHill” value (NR1001/NR2A; NR1001/NR2A) was 1.14 ± 0.10.
